Data: US20120220562A1, “Anti-Viral Compounds” (ABBOTT LABAORATORIES, priority 2011, published 2012)
pEC50: −log10 of the molar value.

Tested on: HCV 1b-Con1 replicon
Test: HCV 1b-Con1 replicon assay in the presence of 5% FBS
Type: cell-based
Details: Hepatitis C virus

Structure (SMILES) | pEC50
COC(=O)N[C@H](C(=O)N1C[C@@H](F)C[C@H]1c1nc2cc([C@H]3CC[C@H](c4ccc5[nH]c([C@@H]6C[C@H](F)CN6C(=O)[C@@H](NC(=O)OC)C(C)C)nc5c4)N3c3ccc(F)cc3)ccc2[nH]1)C(C)C [Example 3.9, methyl {(2S)-1-[(2S,4S)-4-fluoro-2-{5-[(2R,5R)-5-{2-[(2S,4S)-4-fluoro-1-{(2S)-2-[(methoxycarbonyl)amino]-3-methylbutanoyl}pyrrolidin-2-yl]-1H-benzimidazol-5-yl}-1-(4-fluorophenyl)pyrrolidin-2-yl]-1H-benzimidazol-2-yl}pyrrolidin-1-yl]-3-methyl-1-oxobutan-2-yl}carbamate] | 9.00 to 10.00
COC(=O)N[C@H](C(=O)N1CCC[C@H]1c1nc2cc(C3CCC(c4cc5nc([C@@H]6CCCN6C(=O)[C@@H](NC(=O)OC)C(C)C)[nH]c5cc4F)N3c3cc(F)c(N4C[C@@H](C)O[C@@H](C)C4)c(F)c3)c(F)cc2[nH]1)C(C)C (stereo partly drawn) [Example 4.51] | > 10.00
COC(=O)N[C@H](C(=O)N1[C@H](c2nc3cc([C@H]4CC[C@H](c5cc6nc([C@@H]7C[C@@H]8CCC[C@@H]8N7C(=O)[C@@H](NC(=O)OC)C(C)C)[nH]c6cc5F)N4c4cc(F)c(N5CCCCC5)c(F)c4)c(F)cc3[nH]2)C[C@@H]2CCC[C@@H]21)C(C)C [Example 3.37, methyl {(2S)-1-[(2S,3aS,6aS)-2-{5-[(2R,5R)-1-[3,5-difluoro-4-(piperidin-1-yl)phenyl]-5-{6-fluoro-2-[(2S,3aS,6aS)-1-{(2S)-2-[(methoxycarbonyl)amino]-3-methylbutanoyl}octahydrocyclopenta[b]pyrrol-2-yl]-1H-benzimidazol-5-yl}pyrrolidin-2-yl]-6-fluoro-1H-benzimidazol-2-yl}hexahydrocyclopenta[b]pyrrol-1(2H)-yl]-3-methyl-1-oxobutan-2-yl}carbamate] | > 10.00
COC(=O)N[C@H](C(=O)N1CCC[C@H]1c1nc2ccc([C@H]3CC[C@H](c4ccc5nc([C@@H]6CCCN6C(=O)[C@@H](NC(=O)OC)C(C)C)[nH]c5c4)N3c3cc(F)c(N4CCC(c5cccc6ccccc56)CC4)c(F)c3)cc2[nH]1)C(C)C [Example 2.15, methyl {(2S)-1-[(2S)-2-{5-[(2R,5R)-1-{3,5-difluoro-4-[4-(1-naphthyl)piperidin-1-yl]phenyl}-5-{2-[(2S)-1-{(2S)-2-[(methoxycarbonyl)amino]-3-methylbutanoyl}pyrrolidin-2-yl]-1H-benzimidazol-5-yl}pyrrolidin-2-yl]-1H-benzimidazol-2-yl}pyrrolidin-1-yl]-3-methyl-1-oxobutan-2-yl}carbamate] | > 10.00
CC(C)(C)OC(=O)NCC(=O)N1CCC[C@H]1c1nc2cc([C@@H]3CC[C@@H](c4ccc5[nH]c([C@@H]6CCCN6C(=O)CNC(=O)OC(C)(C)C)nc5c4)N3c3ccc(N4CCCCC4)c(F)c3)ccc2[nH]1 [Example 3.14, tert-butyl {2-[(2S)-2-(5-{(2S,5S)-5-{2-[(2S)-1-{[(tert-butoxycarbonyl)amino]acetyl}pyrrolidin-2-yl]-1H-benzimidazol-5-yl}-[3-fluoro-4-(piperidin-1-yl)phenyl]pyrrolidin-2-yl}-1H-benzimidazol-2-yl)pyrrolidin-1-yl]-2-oxoethyl}carbamate] | < 8.00
COC(=O)N[C@H](C(=O)N1CCC[C@H]1c1nc2cc([C@@H]3CC[C@@H](c4ccc5[nH]c([C@@H]6CCCN6C(=O)[C@@H](NC(=O)OC)C(C)C)nc5c4)N3c3ccc(N4CCCCC4)c(F)c3)ccc2[nH]1)C(C)C [Example 3.15, methyl {(2S)-1-[(2S)-2-{5-[(2S,55)-1-[3-fluoro-4-(piperidin-1-yl)phenyl]-5-{2-[(2S)-1-{(2S)-2-[(methoxycarbonyl)amino]-3-methylbutanoyl}pyrrolidin-2-yl]-1H-benzimidazol-5-yl}pyrrolidin-2-yl]-1H-benzimidazol-2-yl}pyrrolidin-1-yl]-3-methyl-1-oxobutan-2-yl}carbamate] | > 10.00
COC(=O)N[C@H](C(=O)N1CCC[C@H]1c1nc2cc([C@H]3CC[C@H](c4cc5nc([C@@H]6CCCN6C(=O)[C@@H](NC(=O)OC)[C@@H](C)OC)[nH]c5cc4F)N3c3cc(F)c(N4CCN(c5c(F)cccc5F)CC4)c(F)c3)c(F)cc2[nH]1)[C@@H](C)OC [Example 3.48, methyl {(2S,3R)-1-[(2S)-2-{5-[(2R,5R)-1-{4-[4-(2,6-difluorophenyl)piperazin-1-yl]-3,5-difluorophenyl}-5-(6-fluoro-2-{(2S)-1-[N-(methoxycarbonyl)-O-methyl-L-threonyl]pyrrolidin-2-yl}-1H-benzimidazol-5-yl)pyrrolidin-2-yl]-6-fluoro-1H-benzimidazol-2-yl}pyrrolidin-1-yl]-3-methoxy-1-oxobutan-2-yl}carbamate] | > 10.00
COC(=O)N[C@H](C(=O)N1CCC[C@H]1c1nc2cc([C@@H]3CC[C@@H](c4ccc5[nH]c([C@@H]6CCCN6C(=O)[C@@H](NC(=O)OC)[C@@H](C)OC)nc5c4)N3c3ccc(C4CC4)cc3F)ccc2[nH]1)[C@@H](C)OC [Example 3.13, methyl {(2S,3R)-1-[(2S)-2-{5-[(2S,5S)-1-(4-cyclopropyl-2-fluorophenyl)-5-(2-{(2S)-1-[N-(methoxycarbonyl)-O-methyl-L-threonyl]pyrrolidin-2-yl}-1H-benzimidazol-5-yl)pyrrolidin-2-yl]-1H-benzimidazol-2-yl}pyrrolidin-1-yl]-3-methoxy-1-oxobutan-2-yl}carbamate] | > 10.00
COC(=O)N[C@H](C(=O)N1CCC[C@H]1c1nc2cc([C@H]3CC[C@H](c4ccc5[nH]c([C@@H]6CCCN6C(=O)[C@@H](NC(=O)OC)C(C)C)nc5c4)N3c3cc(F)c(N4CCC(C(F)(F)F)CC4)c(F)c3)ccc2[nH]1)C(C)C [Example 5.8, methyl {(2S)-1-[(2S)-2-{5-[(2R,5R)-1-{3,5-difluoro-4-[4-(trifluoromethyl)piperidin-1-yl]phenyl}-5-{2-[(2S)-1-{(2S)-2-[(methoxycarbonyl)amino]-3-methylbutanoyl}pyrrolidin-2-yl]-1H-benzimidazol-5-yl}pyrrolidin-2-yl]-1H-benzimidazol-2-yl}pyrrolidin-1-yl]-3-methyl-1-oxobutan-2-yl}carbamate] | > 10.00
COC(=O)N[C@H](C(=O)N1CCC[C@H]1c1nc2cc([C@H]3CC[C@H](c4cc5nc([C@@H]6CCCN6C(=O)[C@@H](NC(=O)OC)C(C)C)[nH]c5cc4F)N3c3cc(F)c(N4CCC(c5ccc(F)cc5F)CC4)c(F)c3)c(F)cc2[nH]1)C(C)C [Example 4.56, methyl {(2S)-1-[(2S)-2-{5-[(2R,5R)-1-{4-[4-(2,4-difluorophenyl)piperidin-1-yl]-3,5-difluorophenyl}-5-{6-fluoro-2-[(2S)-1-{(2S)-2-[(methoxycarbonyl)amino]-3-methylbutanoyl}pyrrolidin-2-yl]-1H-benzimidazol-5-yl}pyrrolidin-2-yl]-6-fluoro-1H-benzimidazol-2-yl}pyrrolidin-1-yl]-3-methyl-1-oxobutan-2-yl}carbamate] | > 10.00
COC(=O)N[C@H](C(=O)N1CCC[C@H]1c1nc2cc([C@H]3CC[C@H](c4ccc5[nH]c([C@@H]6CCCN6C(=O)[C@@H](NC(=O)OC)C(C)C)nc5c4)N3c3ccc(OC4COCOC4)cc3)ccc2[nH]1)C(C)C [Example 2.3, methyl {(2S)-1-[(2S)-2-{5-[(2R,5R)-1-[4-(1,3-dioxan-5-yloxy)phenyl]-5-{2-[(2S)-1-{(2S)-2-[(methoxycarbonyl)amino]-3-methylbutanoyl}pyrrolidin-2-yl]-1H-benzimidazol-5-yl}pyrrolidin-2-yl]-1H-benzimidazol-2-yl}pyrrolidin-1-yl]-3-methyl-1-oxobutan-2-yl}carbamate] | 8.00 to 9.00
COC(=O)N[C@H](C(=O)N1CCC[C@H]1c1nc2cc([C@H]3CC[C@H](c4cc5nc([C@@H]6CCCN6C(=O)[C@@H](NC(=O)OC)C6CCCC6)[nH]c5cc4F)N3c3cc(F)c(N4CCC(C(C)(C)C)CC4)c(F)c3)c(F)cc2[nH]1)C1CCCC1 [Example 4.28, dimethyl ({(2R,5R)-1-[4-(4-tert-butylpiperidin-1-yl)-3,5-difluorophenyl]pyrrolidine-2,5-diyl}bis{(6-fluoro-1H-benzimidazole-5,2-diyl)(2S)pyrrolidine-2,1-diyl[(1S)-1-cyclopentyl-2-oxoethane-2,1-diyl]})biscarbamate] | > 10.00
COC(=O)N[C@H](C(=O)N1CCC[C@H]1c1nc2cc([C@H]3CC[C@@H](c4cc5[nH]c([C@@H]6CCCN6C(=O)[C@@H](NC(=O)OC)C(C)C)nc5cc4F)N3c3ccc(C(C)(C)C)cc3)c(F)cc2[nH]1)C(C)C [Example 6.2, methyl {(2S)-1-[(2S)-2-{5-[(2R,5S)-1-(4-tert-butylphenyl)-5-{5-fluoro-2-[(2S)-1-(2S)-2-[(methoxycarbonyl)amino]-3-methylbutanoylpyrrolidin-2-yl]-1H-benzimidazol-6-yl}pyrrolidin-2-yl]-6-fluoro-1H-benzimidazol-2-yl}pyrrolidin-1-yl]-3-methyl-1-oxobutan-2-yl}carbamate] | > 10.00
COC(=O)N[C@H](C(=O)N1CCC[C@H]1c1nc2ccc([C@H]3CC[C@H](c4ccc5nc([C@@H]6CCCN6C(=O)[C@@H](NC(=O)OC)C(C)C)[nH]c5c4)N3c3ccc(OCC(F)F)cc3)cc2[nH]1)C(C)C [Example 4.11, methyl {(2S)-1-[(2S)-2-{6-[(2R,5R)-1-[4-(2,2-difluoroethoxy)phenyl]-5-{2-[(2S)-1-{(2S)-2-[(methoxycarbonyl)amino]-3-methylbutanoyl}pyrrolidin-2-yl]-1H-benzimidazol-6-yl}pyrrolidin-2-yl]-1H-benzimidazol-2-yl}pyrrolidin-1-yl]-3-methyl-1-oxobutan-2-yl}carbamate] | > 10.00
COC(=O)N[C@H](C(=O)N1CCC[C@H]1c1nc2cc([C@H]3CC[C@H](c4ccc5[nH]c([C@@H]6CCCN6C(=O)[C@@H](NC(=O)OC)C(C)C)nc5c4)N3c3cc(F)c(N4CCC(c5ccc(F)cc5)CC4)c(F)c3)ccc2[nH]1)C(C)C [Example 3.42, methyl {(2S)-1-[(2S)-2-{5-[(2R,5R)-1-{3,5-difluoro-4-[4-(4-fluorophenyl)piperidin-1-yl]phenyl}-5-{2-[(2S)-1-{(2S)-2-[(methoxycarbonyl)amino]-3-methylbutanoyl}pyrrolidin-2-yl]-1H-benzimidazol-5-yl}pyrrolidin-2-yl]-1H-benzimidazol-2-yl}pyrrolidin-1-yl]-3-methyl-1-oxobutan-2-yl}carbamate] | > 10.00
